# Laboratory results reported in PubChem BioAssay AID256 (DTP/NCI, 2004).
# Values joined by “and” are separate entries in the source; they are usually repeats but may differ in a detail not shown here. Equal values may be shown once. Toxic doses and inconclusive results are not listed. Positions of bridges follow the written chain, without caps; N, C: chain ends. Residues, ends and D or L forms follow the SMILES beside them. Chains are numbered I, II in the order given. *: point of attachment. Bz = O=C(c1ccccc1)*
# Test system: CD2F1 mice, L1210 leukemia ip, survival T/C
# Assay: NCI In Vivo Anticancer Drug Screen. Data for tumor model L1210 Leukemia (intraperitoneal) in CD2F1 (CDF1) mice
# Settings: higher = longer survival
# Summary of the method: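 Antitumor effect is scored in animals hosting a serially transplanted tumor. Values compare compound-dosed animals against vehicle-only controls as a simple quotient.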
# [1] = endpoint: mean survival time, dose: 100.0 mg/kg/injection, schedule: Q01DX009 (ip), vehicle: saline with Tween-80
# [2] = endpoint: mean survival time, dose: 200.0 mg/kg/injection, schedule: Q01DX009 (ip), vehicle: saline with Tween-80
# [3] = endpoint: mean survival time, dose: 100.0 mg/kg/injection, schedule: Q01DX001 (ip), vehicle: saline with Tween-80
# [4] = endpoint: mean survival time, dose: 200.0 mg/kg/injection, schedule: Q01DX001 (ip), vehicle: saline with Tween-80
# [5] = endpoint: mean survival time, dose: 400.0 mg/kg/injection, schedule: Q01DX001 (ip), vehicle: saline with Tween-80
# [6] = endpoint: mean survival time, dose: 400.0 mg/kg/injection, schedule: Q01DX009 (ip), vehicle: saline with Tween-80
# [7] = endpoint: mean survival time, dose: 100.0 mg/kg/injection, schedule: Q04DX003 (ip), vehicle: saline with Tween-80
# [8] = endpoint: mean survival time, dose: 200.0 mg/kg/injection, schedule: Q04DX003 (ip), vehicle: saline with Tween-80
# [9] = endpoint: mean survival time, dose: 400.0 mg/kg/injection, schedule: Q04DX003 (ip), vehicle: saline with Tween-80
compound,measurement,setting,value
c1ccc(C(c2ccccc2)[n+]2ccccc2)cc1,T/C,"endpoint: mean survival time, dose: 5.0 mg/kg/injection, schedule: Q01DX009 (ip), vehicle: saline",98 % of control
same,T/C,"endpoint: mean survival time, dose: 5.0 mg/kg/injection, schedule: Q04DX003 (ip), vehicle: saline",104 % of control
same,T/C,"endpoint: mean survival time, dose: 10.0 mg/kg/injection, schedule: Q01DX009 (ip), vehicle: saline",102 % of control
same,T/C,"endpoint: mean survival time, dose: 10.0 mg/kg/injection, schedule: Q04DX003 (ip), vehicle: saline",103 % of control
same,T/C,"endpoint: mean survival time, dose: 20.0 mg/kg/injection, schedule: Q04DX003 (ip), vehicle: saline",109 % of control
CCCCNC(=S)N(CCCC)CCCC,T/C,[1],102 % of control
same,T/C,[2],87 % of control
CSCCC(NC(C)=O)C(=O)O.CSCCC(NC(C)=O)C(=O)O.[NH-]C1CCCCC1[NH-].[Pt+2] (stereo unspecified),T/C,"endpoint: median survival time, dose: 3.12 mg/kg/injection, schedule: Q04DX003 (ip), vehicle: saline",100 % of control
same,T/C,"endpoint: median survival time, dose: 6.25 mg/kg/injection, schedule: Q04DX003 (ip), vehicle: saline",100 % of control
same,T/C,"endpoint: median survival time, dose: 12.5 mg/kg/injection, schedule: Q04DX003 (ip), vehicle: saline",97 % of control
same,T/C,"endpoint: median survival time, dose: 25.0 mg/kg/injection, schedule: Q04DX003 (ip), vehicle: saline",107 % of control
same,T/C,"endpoint: median survival time, dose: 50.0 mg/kg/injection, schedule: Q04DX003 (ip), vehicle: saline",93 % of control
same,T/C,"endpoint: median survival time, dose: 100.0 mg/kg/injection, schedule: Q04DX003 (ip), vehicle: saline",98 % of control
same,T/C,"endpoint: median survival time, dose: 200.0 mg/kg/injection, schedule: Q04DX003 (ip), vehicle: saline",97 % of control
O=C(O)C(O)(O)C(=O)O,T/C,[3],102 % of control
same,T/C,[4],102 % of control
same,T/C,[5],102 % of control
COC1=C(C)C(=O)c2c(c(COC(N)=O)c3n2CCC3OC(N)=O)C1=O (stereo unspecified),T/C,"endpoint: mean survival time, dose: 1.25 mg/kg/injection, schedule: Q01DX001 (ip), vehicle: distilled water + Tween-80",108 % of control
same,T/C,"endpoint: mean survival time, dose: 1.5 mg/kg/injection, schedule: Q01DX001 (ip), vehicle: distilled water + Tween-80",114 % of control
same,T/C,"endpoint: mean survival time, dose: 2.5 mg/kg/injection, schedule: Q01DX001 (ip), vehicle: distilled water + Tween-80",120 % of control
same,T/C,"endpoint: mean survival time, dose: 3.0 mg/kg/injection, schedule: Q01DX001 (ip), vehicle: distilled water + Tween-80",118 % of control
same,T/C,"endpoint: mean survival time, dose: 5.0 mg/kg/injection, schedule: Q01DX001 (ip), vehicle: distilled water + Tween-80",117 % of control
same,T/C,"endpoint: mean survival time, dose: 6.0 mg/kg/injection, schedule: Q01DX001 (ip), vehicle: distilled water + Tween-80",116 % of control
same,T/C,"endpoint: mean survival time, dose: 10.0 mg/kg/injection, schedule: Q01DX001 (ip), vehicle: distilled water + Tween-80",115 % of control
same,T/C,"endpoint: mean survival time, dose: 12.0 mg/kg/injection, schedule: Q01DX001 (ip), vehicle: distilled water + Tween-80",122 % of control
O=C(O)c1ccc([N+](=O)[O-])nc1,T/C,[3],91 % of control
same,T/C,[4],95 % of control
same,T/C,[5],93 % of control
Cc1ccc(S(=O)(=O)Nc2ccc(I)cc2F)cc1,T/C,[1],101 % of control
same,T/C,[2],97 % of control
same,T/C,[6],97 % of control
CC(O)C1=CC(c2ccccc2)(c2ccccc2)c2ccccc21 (stereo unspecified),T/C,[3],95 % of control
same,T/C,[4],91 % of control
same,T/C,[5],88 % of control
CN(C)N=Nc1ccccc1C(=O)NNC(=O)CC#N,T/C,"endpoint: mean survival time, dose: 18.75 mg/kg/injection, schedule: Q01DX009 (ip), vehicle: Klucel (hydroxypropylcellulose) (HPC)",88 % of control and 97 % of control
same,T/C,"endpoint: mean survival time, dose: 37.5 mg/kg/injection, schedule: Q01DX009 (ip), vehicle: Klucel (hydroxypropylcellulose) (HPC)",92 % of control and 100 % of control
same,T/C,"endpoint: mean survival time, dose: 75.0 mg/kg/injection, schedule: Q01DX009 (ip), vehicle: Klucel (hydroxypropylcellulose) (HPC)",93 % of control and 111 % of control
same,T/C,"endpoint: mean survival time, dose: 150.0 mg/kg/injection, schedule: Q01DX009 (ip), vehicle: Klucel (hydroxypropylcellulose) (HPC)",113 % of control and 102 % of control
same,T/C,"endpoint: mean survival time, dose: 300.0 mg/kg/injection, schedule: Q01DX009 (ip), vehicle: Klucel (hydroxypropylcellulose) (HPC)",120 % of control and 111 % of control
O=C(NCCCl)Nc1ncn[nH]1,T/C,[7],95 % of control
same,T/C,[8],98 % of control
same,T/C,[9],96 % of control
Nc1ccc(N(c2ccccc2)c2ccccc2)cc1,T/C,"endpoint: mean survival time, dose: 100.0 mg/kg/injection, schedule: Q04DX002 (ip), vehicle: Klucel (hydroxypropylcellulose) (HPC)",97 % of control
same,T/C,"endpoint: mean survival time, dose: 200.0 mg/kg/injection, schedule: Q04DX002 (ip), vehicle: Klucel (hydroxypropylcellulose) (HPC)",86 % of control
same,T/C,"endpoint: mean survival time, dose: 400.0 mg/kg/injection, schedule: Q04DX002 (ip), vehicle: Klucel (hydroxypropylcellulose) (HPC)",89 % of control
COc1cc(N=C(N)N=C(N)N)c2ncccc2c1,T/C,"endpoint: mean survival time, dose: 100.0 mg/kg/injection, schedule: Q04DX002 (ip), vehicle: saline",90 % of control
same,T/C,"endpoint: mean survival time, dose: 200.0 mg/kg/injection, schedule: Q04DX002 (ip), vehicle: saline",90 % of control
COC1C(/C=C/C(C)=O)OC2OC(C)(C)OC21 (stereo unspecified),T/C,"endpoint: mean survival time, dose: 6.25 mg/kg/injection, schedule: Q01DX009 (ip), vehicle: saline",110 % of control
same,T/C,"endpoint: mean survival time, dose: 12.5 mg/kg/injection, schedule: Q01DX009 (ip), vehicle: saline",110 % of control
same,T/C,"endpoint: mean survival time, dose: 25.0 mg/kg/injection, schedule: Q01DX009 (ip), vehicle: saline",95 % of control
same,T/C,"endpoint: mean survival time, dose: 50.0 mg/kg/injection, schedule: Q01DX009 (ip), vehicle: saline",103 % of control
same,T/C,"endpoint: mean survival time, dose: 100.0 mg/kg/injection, schedule: Q01DX009 (ip), vehicle: saline",109 % of control
same,T/C,"endpoint: mean survival time, dose: 200.0 mg/kg/injection, schedule: Q01DX009 (ip), vehicle: saline",116 % of control
COc1cc2c(c(OC)c1OC)-c1ccc(OC)c(=O)cc1[C@@H](NC(=O)CF)CC2,T/C,"endpoint: mean survival time, dose: 0.37 mg/kg/injection, schedule: Q01DX009 (ip), vehicle: saline",109 % of control
COC(=O)C(CSSCC(NC(=O)CNC(=O)c1ccccc1)C(=O)OC)NC(=O)CNC(=O)c1ccccc1 (stereo not drawn) (I: Bz-Gly-Cys-OMe / II: Bz-Gly-Cys-OMe; disulfide I:2-II:2; configuration not given here),T/C,[3],108 % of control
same,T/C,[1],87 % of control
same,T/C,[4],102 % of control
same,T/C,[2],87 % of control
same,T/C,[5],97 % of control
O=C1C(NCC(O)CO)=C(N2CC2)C(=O)C(NCC(O)CO)=C1N1CC1 (stereo unspecified),T/C,"endpoint: mean survival time, dose: 1.25 mg/kg/injection, schedule: Q01DX009 (oral), vehicle: saline",91 % of control and 103 % of control
same,T/C,"endpoint: mean survival time, dose: 2.5 mg/kg/injection, schedule: Q01DX009 (oral), vehicle: saline",98 % of control
same,T/C,"endpoint: mean survival time, dose: 10.0 mg/kg/injection, schedule: Q01DX009 (oral), vehicle: saline",109 % of control
same,T/C,"endpoint: mean survival time, dose: 20.0 mg/kg/injection, schedule: Q01DX009 (oral), vehicle: saline",104 % of control and 105 % of control
same,T/C,"endpoint: median survival time, dose: 0.5 mg/kg/injection, schedule: Q01DX009 (ip), vehicle: saline",123 % of control
same,T/C,"endpoint: median survival time, dose: 2.0 mg/kg/injection, schedule: Q01DX009 (ip), vehicle: saline",163 % of control
same,T/C,"endpoint: median survival time, dose: 4.0 mg/kg/injection, schedule: Q01DX009 (ip), vehicle: saline",228 % of control
same,T/C,"endpoint: median survival time, dose: 8.0 mg/kg/injection, schedule: Q01DX009 (ip), vehicle: saline",195 % of control
O=C1CCCCCCCCCCC1C(O)(C(F)(F)F)C(F)(F)F (stereo unspecified),T/C,[1],96 % of control
same,T/C,[7],91 % of control
same,T/C,[2],101 % of control
same,T/C,[8],95 % of control
same,T/C,[6],96 % of control
same,T/C,[9],91 % of control
COc1cc(C)cc(N)n1,T/C,"endpoint: mean survival time, dose: 6.25 mg/kg/injection, schedule: Q01DX001 (ip), vehicle: saline with Tween-80",89 % of control
same,T/C,"endpoint: mean survival time, dose: 12.5 mg/kg/injection, schedule: Q01DX001 (ip), vehicle: saline with Tween-80",92 % of control
same,T/C,"endpoint: mean survival time, dose: 25.0 mg/kg/injection, schedule: Q01DX001 (ip), vehicle: saline with Tween-80",89 % of control
O=C(O)c1ccccc1C(c1ccccc1)c1ccccc1,T/C,"endpoint: mean survival time, dose: 50.0 mg/kg/injection, schedule: Q01DX009 (ip), vehicle: saline with Tween-80",94 % of control
same,T/C,[1],94 % of control
Cc1ccc([N+](=O)[O-])cc1NC(=O)Nc1cc([N+](=O)[O-])ccc1O,T/C,[1],91 % of control
same,T/C,[2],96 % of control
same,T/C,[6],107 % of control
